Tested on: T. cruzi intracellular amastigotes in H9c2 cells
Assay: Rate-of-Kill (RoK) high-content imaging assay, amastigotes per cell (AM/CELL) and curve descriptors
Type: cell-based, Trypanosoma cruzi
Parameters: key to ME_24h / ME_48h / ME_72h: % reduction in parasite burden (cidal response); t50pct_MCC50 / t50pct_Cmax: unit not given here
Conditions: for ME_24h: 24h; for ME_48h: 48h; for ME_72h: 72h; for AM/CELL NORM: sheet figure 4 A; for t50%_Cmax / tlag_Cmax / t50pct_Cmax: at Cmax; for ME_24h (%): maximum effect at 24 h; for ME_24h (%) / ME_48h (%) / ME_72h (%): RoK assay; for ME_48h (%): maximum effect at 48 h; for ME_72h (%): maximum effect at 72 h; for ME 24h (maximum effect at 24 hours, intracellular amastigotes): maximum percentage of parasite burden reduction reached by any concentration
Summary of the method: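 H9c2 cardiomyocytes infected with T. cruzi trypomastigotes (MOI 8, 18 h), then compounds tested at 5 μM single shot or 11-point 1/3 dilution from 50 μM. DRAQ5-stained nuclei imaged over a time course. Amastigotes per cell normalised to infected cells at 4 h (0%) and non-infected cells (100%).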

Work on `O=C(NCCc1cccnc1)c1ccc(-c2ccccc2F)o1` [TCMDC-143190] yielded an ME_24h (figure 5) of -188.225, an ME_48h (figure 5) of -99.3488 and an ME_72h (figure 5) of 47.7023. The “MCC50” value (RoK curve descriptor) was 5.6 µM, the “MCCE” value (RoK curve descriptor) was 0.2 µM and the “AM/CELL NORM” value (Time 4) was 10.7478. The “AM/CELL NORM” value (Time 24) was -116.413, the “AM/CELL NORM” value (Time 48) was -106.707 and the “AM/CELL NORM” value (Time 72) was 59.1013. For the same compound, the “t50%_Cmax” value was 72.0 h, the “tlag_Cmax” value was 24.0 h and the t50pct_Cmax (figure 5) was 72. The tlag_Cmax (figure 5) was 24, the “t50%_MCC50” value (at MCC50) was 72.0 h and the “tlag_MCC50” value (at MCC50) was 24.0 h. The t50pct_MCC50 (at MCC50, figure 5) was 72, the tlag_MCC50 (at MCC50, figure 5) was 48 and the MCCE (figure 5) was 0.2058. The MCC50 (figure 5, in µM) was 27.7778, the “ME_24h (%)” value was -188.2% and the “ME_48h (%)” value was -99.4%. The “ME_72h (%)” value was 47.7% and the “ME 24h (maximum effect at 24 hours, intracellular amastigotes)” value (shortened to “ME 24h”) was -116.413%.
For `O=C(NCCc1ccccc1Cl)c1cccn1-c1cccnc1` [TCMDC-143253], the ME_24h (figure 5) was -106.211, the ME_48h (figure 5) was -219.247 and the ME_72h (figure 5) was 24.5352. The “MCCE” value (RoK curve descriptor) was 0.6 µM, the “AM/CELL NORM” value (Time 4) was -14.0913 and the “AM/CELL NORM” value (Time 24) was -106.211. For the same compound, the “AM/CELL NORM” value (Time 48) was -401.6, the “AM/CELL NORM” value (Time 72) was -120.948 and the “tlag_Cmax” value was 48.0 h. It also gave a t50pct_Cmax (figure 5) of 72, a tlag_Cmax (figure 5) of 48 and a t50pct_MCC50 (at MCC50, figure 5) of 72. For the same compound, the tlag_MCC50 (at MCC50, figure 5) was 72, the MCC50 (figure 5) was 50 µM and the MCCE (figure 5) was 0.6173. The “ME_24h (%)” value was -106.2%, the “ME_48h (%)” value was -219.3% and the “ME_72h (%)” value was 24.5%. The “ME 24h” value was -106.211%.
For `COc1ccc(S(=O)(=O)NC(C)C)cc1Nc1ncc(-c2cccc(F)c2)cn1` [TCMDC-143248], the ME_24h (figure 5) was -143.559, the ME_48h (figure 5) was -20.0816 and the ME_72h (figure 5) was 54.2238. For the same compound, the “MCC50” value (RoK curve descriptor) was 50.0 µM, the “MCCE” value (RoK curve descriptor) was 0.6 µM and the “AM/CELL NORM” value (Time 4) was -6.932. The “AM/CELL NORM” value (Time 24) was -311.598, the “AM/CELL NORM” value (Time 48) was -64.9455 and the “AM/CELL NORM” value (Time 72) was 9.4251. The “t50%_Cmax” value was 72.0 h, the “tlag_Cmax” value was 24.0 h and the t50pct_Cmax (figure 5) was 72. For the same compound, the tlag_Cmax (figure 5) was 24, the “t50%_MCC50” value (at MCC50) was 72.0 h and the “tlag_MCC50” value (at MCC50) was 24.0 h. It also gave a t50pct_MCC50 (at MCC50, figure 5) of 72, a tlag_MCC50 (at MCC50, figure 5) of 48 and an MCC50 (figure 5) of 50 µM. For the same compound, the MCCE (figure 5) was 0.6173, the “ME_24h (%)” value was -143.6% and the “ME_48h (%)” value was -20.1%. The “ME_72h (%)” value was 54.2% and the “ME 24h” value was -47.9652%.
Work on `Cc1cccnc1CN1CCN(CCCOc2ccc(-c3ccc(C(N)=O)cc3)cc2)CC1` [TCMDC-143291] yielded an ME_24h (figure 5) of -149.164, an ME_48h (figure 5) of -418.951 and an ME_72h (figure 5) of -403.993. For the same compound, the “MCCE” value (RoK curve descriptor) was 16.7 µM, the “AM/CELL NORM” value (Time 4) was 9.834 and the “AM/CELL NORM” value (Time 24) was -41.6178. The “AM/CELL NORM” value (Time 48) was -122.335, the “AM/CELL NORM” value (Time 72) was -107.466 and the “tlag_Cmax” value was 48.0 h. The t50pct_Cmax (figure 5) was 72, the tlag_Cmax (figure 5) was 48 and the t50pct_MCC50 (at MCC50, figure 5) was 72. The tlag_MCC50 (at MCC50, figure 5) was 72, the MCC50 (figure 5) was 50 µM and the MCCE (figure 5) was 16.6667. For the same compound, the “ME_24h (%)” value was -149.2%, the “ME_48h (%)” value was -419.0% and the “ME_72h (%)” value was -404.0%. For the same compound, the “ME 24h” value was -41.6178%.
`Cn1nccc1-c1cc(OC(CN)c2ccccc2)cnc1-c1ccco1.O=C(O)C(F)(F)F.O=C(O)C(F)(F)F` (stereo not shown) [TCMDC-143221] showed an ME_24h (figure 5) of -243.084, an ME_48h (figure 5) of -97.9255 and an ME_72h (figure 5) of 30.5438. For the same compound, the “MCCE” value (RoK curve descriptor) was 1.9 µM, the “AM/CELL NORM” value (Time 4) was 21.0268 and the “AM/CELL NORM” value (Time 24) was -310.615. For the same compound, the “AM/CELL NORM” value (Time 48) was -207.349, the “AM/CELL NORM” value (Time 72) was 0.471 and the “tlag_Cmax” value was 24.0 h. It also gave a t50pct_Cmax (figure 5) of 72, a tlag_Cmax (figure 5) of 24 and a t50pct_MCC50 (at MCC50, figure 5) of 72. The tlag_MCC50 (at MCC50, figure 5) was 72, the MCC50 (figure 5) was 50 µM and the MCCE (figure 5) was 1.852. For the same compound, the “ME_24h (%)” value was -243.1%, the “ME_48h (%)” value was -97.9% and the “ME_72h (%)” value was 30.5%. For the same compound, the “ME 24h” value was -243.084%.
